Laboratory results taken from patent US12116636B2, “Methods for evaluating tumor cell spheroids using 3D microfluidic cell culture device” (Dana-Farber Cancer Institute, Inc., priority 2017, dated 2024).

Test system: PDOTS
Test: Bead-based cytokine profiling of PDOTS conditioned media
Assay type: cell-based, human
Protocol: Fresh tumor specimens (murine and human patients) were received in media (DMEM) on ice and minced in a 10 cm dish (on ice) using sterile forceps and scalpel. Minced tumor was resuspended in DMEM (4.5 mM glucose, […] sodium pyruvate, 1:100 penicillin-streptomycin) (Coming CellGro, Manassas, VA)+10% FBS (Gemini Bio-Products, West Sacramento, CA), 100 U/mL collagenase type IV (Life Technologies, Carlsbad, CA), and 15 mM HEPES (Life Technologies, Carlsbad, CA), except for CT26 tumors that were prepared in RPMI. Samples were pelleted and resuspended in 10-20 mL media. Red blood cells were removed from visibly bloody samples using RBC Lysis Buffer (Boston Bio-Products, Ashland, MA). […]
Two multiplex assays were performed utilizing a bead-based immunoassay approach, the Bio-Plex Pro™ Human Cytokine 40-plex Assay (Cat #171AK99MR2) and Bio-Plex Pro™ Mouse Cytokine Panel 1, 23-plex (Cat #M60009RDPD) on a Bio-plex 200 system (Cat #171000201). […] Fold changes relative to the MDOT/PDOT control were calculated and plotted as log 2FC. Lower and upper limits of quantitation (LLOQ/ULOQ) were imputed from standard curves for cytokines above or below detection. […]

Substance	CCL19/CXCL13 induction in PDOTS (Day 3, relative to untreated control)	PDOTS samples with upregulation of CCL19 and CXCL13 (Day 3 cytokine release, n=28)
ipilimumab [CTLA-4 blockade]	comparatively minimal	
pembrolizumab [PD-1 blockade]		23/28
